Data published in patent US20190248830A1, “PROLIPOSOMAL TESTOSTERONE UNDECANOATE FORMULATIONS” (WESTERN UNIVERSITY OF HEALTH SCIENCES, priority 2016, published 2019).
Read-outs that look alike come from different tables or passages of the source.

What was measured:
[1] = Oral PK (plasma T) of TSX-002, TSX-007, TSX-009, unformulated T and TU in female beagle dogs, fasted or fed; format: in vivo; conditions: for AUC / Cmax / Tmax: female, beagle, dog, plasma, po, 7.5 mg/kg; for AUC / Cmax / Tmax / Av. AUC (plasma T) / Av. Cmax (plasma T) / Av. Tmax: oral 7.5 mg/kg; for AUC: read-out: Av. AUC (plasma T); for Cmax: read-out: Av. Cmax (plasma T); for Tmax: read-out: Av. Tmax
Procedure: In vivo pK data TSX-002 (native T:Lipid), TSX-007 (native T:Lipid:TPGS (20% w/w of T)), and TSX-009 (TU:Lipid:TPGS (20% w/w of T)). TSX-002, TSX-007, and TSX-009 formulations were orally administered to female beagle dogs under fasted or fed conditions. Fasted condition means animals were fasted overnight, dosing was performed the subsequent morning, and food was served two hours post-dosing. Animals were allowed access to food for another two hours, and monitored if they ate the food. Fed condition means animals were fasted overnight, dosing was performed the subsequent morning, and food was served 15 min. post-dosing. Animals were allowed access to food for another two hours, and monitored if they ate the food. Blood samples were taken, at 0, 0.5, 1, 2, 3, 4, 6, 8, 12 and 24 hours. The administered dosage of TU was 7.5 mg/kg (TU/body weight). Plasma samples were analyzed on Day 1 and Day 7. Pharmacokinetic data for treatment days 1 and 7, under fasting and fed conditions are reported for unformulated T in Table 2; unformulated TU in Table 3; TSX-002 (T:Lipid) in Table 4; TSX-007 (native T:Lipid:TPGS (20% w/w of T)) in Table 5; and TSX-009 (TU:Lipid:TPGS (20% w/w of T)) in Table 6.
(§1) In vivo pK data for TSX-010 (TU:Lipid, 1:1), TSX-011 (TU:Lipid, 1:2), and TSX-012 (TU:Lipid, 1:4) in female Beagle dogs. Unformulated TU, TSX-010, TSX-011, and TSX-012 formulations. In addition to tracking plasma T levels, blood samples taken by jugular vein puncture at 0, 0.5, 1, 2, 3, 4, 6, 8, 12, 24 hours, and the following pharmacokinetic (PK) parameters were analyzed for each formulation and unformulated testosterone and testosterone undecanoate. Table 18 contains PK data for unformulated testosterone and testosterone undecanoate at days 1 and 7, under fasted and fed conditions. Tables 19 and 20 contain PK data for the TSX-010, TSX-011, and TSX-012 formulations under fasted (Table 19) and fed (Table 20) conditions.

[2] = Plasma testosterone concentrations and PK after oral TSX-010, TSX-011, TSX-012 or unformulated TU in female beagle dogs; format: in vivo; conditions: TU 7.5 mg/kg
Procedure: Plasma testosterone concentrations after administration of TSX-010 (TU:Lipid, 1:1), TSX-011 (TU:Lipid, 1:2), and TSX-012 (TU:Lipid, 1:4). Unformulated TU, TSX-010, TSX-011, and TSX-012 formulations were orally administered under either fasted or fed conditions. The fasted condition means animals were fasted overnight, dosing was performed the subsequent morning, and food was served two hours post-dosing. Animals were allowed access to food for another two hours, and monitored if they ate the food. The fed condition means animals were fasted overnight, dosing was performed the subsequent morning, and food was served 15 min. post-dosing. Animals were allowed access to food for another two hours, and monitored if they ate the food. For unformulated TU, blood samples were taken by venipuncture of the jugular vein at 0, 0.5, 1, 2, 3, 4, 6, 8, 12, and 24 hours in both fed and fasted conditions. For TU formulations like TSX-010, TSX-011, TSX-012, blood samples were taken by venipuncture of the jugular vein at 0, 4, 6, 8, 10, 12, 14, 16, 18 and 24 hours in fasted conditions and at 0, 1, 2, 4, 6, 8, 10, 12, 16 and 24 hours in fed conditions in femalebeagle dogs. The administered dosages of TU were either 1.875, 3.75, or 7.5 mg/kg (TU/body weight). Plasma testosterone concentration data, was obtained at day 1 for formulations TSX-010, TSX-011, and TSX-012, and days 1 and 7, for unformulated TU.
as §1

C[C@]12CC[C@H]3[C@@H](CCC4=CC(=O)CC[C@@]43C)[C@@H]1CC[C@@H]2O [Unformulated T, testosterone]
AUC ([1]; day 1, fasted): 28.7 ± 9.44 ng·h/mL | Cmax ([1]; day 1, fasted): 6.39 ± 2.47 ng/mL | Tmax ([1]; day 1, fasted): 2.17 ± 0.98 h | AUC ([1]; day 1, fed): 36.8 ± 19.4 ng·h/mL | Cmax ([1]; day 1, fed): 9.85 ± 5.8 ng/mL | Tmax ([1]; day 1, fed): 3.67 ± 2.58 h | AUC ([1]; day 7, fasted): 11.2 ± 3.28 ng·h/mL | Cmax ([1]; day 7, fasted): 2.7 ± 0.78 ng/mL | Tmax ([1]; day 7, fasted): 2.5 ± 1.22 h | AUC ([1]; day 7, fed): 43 ± 43.9 ng·h/mL | Cmax ([1]; day 7, fed): 13 ± 13.6 ng/mL | Tmax ([1]; day 7, fed): 3.5 ± 4.42 h

CCCCCCCCCCC(=O)O[C@H]1CC[C@H]2[C@@H]3CCC4=CC(=O)CC[C@]4(C)[C@H]3CC[C@]12C [Unformulated TU, testosterone undecanoate]
Plasma profiles on Day 7 ([1]; Day 7, compared to responders to proliposomal TU formulations): plasma profiles dropped significantly | Increase in AUC and Cmax in the presence of food ([1]; fed compared to fasted state): two-fold increase in AUC and Cmax | Av. AUC (plasma T) ([1]; day 1, fasted): 16.63 ± 27.15 ng·h/mL | Av. Cmax (plasma T) ([1]; day 1, fasted): 2.34 ± 3.94 ng/mL | Av. Tmax ([1]; day 1, fasted): 6.50 ± 4.43 h | Av. AUC (plasma T) ([1]; day 1, fed): 108.41 ± 42.73 ng·h/mL | Av. Cmax (plasma T) ([1]; day 1, fed): 33.83 ± 5.06 ng/mL | Av. Tmax ([1]; day 1, fed): 4.0 ± 1.55 h | Av. AUC (plasma T) ([1]; day 7, fasted): 30.88 ± 35.98 ng·h/mL | Av. Cmax (plasma T) ([1]; day 7, fasted): 4.38 ± 5.12 ng/mL | Av. Tmax ([1]; day 7, fasted): 8.0 ± 5.66 h | Av. AUC (plasma T) ([1]; day 7, fed): 20.50 ± 16.59 ng·h/mL | Av. Cmax (plasma T) ([1]; day 7, fed): 5.37 ± 3.78 ng/mL | Av. Tmax ([1]; day 7, fed): 4.17 ± 3.25 h | Animals with plasma T > 0.5 ng/mL, percent ([2]; fasted, day 1): (33.3%) | Animals with plasma T > 0.5 ng/mL (responders/treated) ([2]; fasted, day 1, within 24 h): 2/6 | Animals with plasma T > 0.5 ng/mL, percent ([2]; fasted, day 7): (50%) | Animals with plasma T > 0.5 ng/mL (responders/treated) ([2]; fasted, day 7, within 24 h): 3/6 | Animals with plasma T > 0.5 ng/mL, percent ([2]; fed, day 1): (100%) | Animals with plasma T > 0.5 ng/mL (responders/treated) ([2]; fed, day 1, within 24 h): 6/6 | Animals with plasma T > 0.5 ng/mL, percent ([2]; fed, day 7): (100%) | Animals with plasma T > 0.5 ng/mL (responders/treated) ([2]; fed, day 7, within 24 h): 5/6
